# Experimental data reported in paper PMC6915728 (Nature Communications, 2019).
# Assays:
# [1] = system: AMP-evolved E. coli lines; assay: Cross-resistance / collateral sensitivity: relative MIC change of 38 laboratory-evolved AMP-resistant lines vs parental strain; assay type: cell-based, Escherichia coli; conditions: measured here
# Excerpt: Here, we extended this dataset by measuring susceptibility changes of the same evolved lines to four additional AMPs using identical protocols to represent AMPs from all four clusters (Supplementary Fig. 15a, see also Methods). Overall, the resulting dataset of susceptibility profiles provides a comprehensive map of cross-resistance and collateral sensitivity between AMPs representing various modes of action.
# To characterize the cross-resistance of the 38 E. coli lineages we obtained relative MIC changes that are, the MIC values of the evolved lines compared to these of the parental strain, from two data sources. First, we used already measured relative MIC changes from Spohn et al. Supplementary data 4[20]. […] Second, we extended this dataset by measuring the relative MIC changes of the same evolved lines to four additional AMPs using identical protocol. […] In this way, AMPs from each cluster were represented in the dataset.
# Supplementary Figure 15. […] Relative change in MIC was determined for each evolved line by comparing its MIC to the ancestral cell line (control). […] CAP18-adaped lines were not included in the analysis because CAP18 is known as a membrane-targeting AMP in the literature. c, Cross-resistance interactions are enriched between membrane-targeting AMPs that are in the same chemical-genetic clusters (i.e. AMP pairs within C1 and within C2 clusters) (Significant difference: ** P = 0.0082 from two-sided Fisher’s exact test, n = 61 and 62 for within cluster and between clusters, respectively). […] Source data are provided as a Source Data file.
# E. coli = conditions: previous laboratory evolution experiment; cited from earlier work
# Excerpt: The results presented in this study may have important implications for the development of AMP-based therapies. Previous works reported several instances of cross-resistance interactions between membrane-targeting peptides (Supplementary Data 1), however, the potential for cross-resistance across AMPs with different modes of action has remained poorly understood. Specifically, while cross-resistance between host and therapeutic AMPs is certainly a realistic danger, not all AMPs are equally prone to cross-resistance. Given the immense diversity of AMPs with major differences in physicochemical ...
Sequence,Relative change in MIC (MIC of the AMP-adpated line / MIC of the ancestral strain) ([1]; AMP-adapted line CAP18_2),Relative change in MIC (MIC of the AMP-adpated line / MIC of the ancestral strain) ([1]; AMP-adapted line CAP18_5),Relative change in MIC (MIC of the AMP-adpated line / MIC of the ancestral strain) ([1]; AMP-adapted line CAP18_6),Relative change in MIC (MIC of the AMP-adpated line / MIC of the ancestral strain) ([1]; AMP-adapted line CAP18_8),Relative change in MIC (MIC of the AMP-adpated line / MIC of the ancestral strain) ([1]; AMP-adapted line CAP18_10),Relative change in MIC (MIC of the AMP-adpated line / MIC of the ancestral strain) ([1]; AMP-adapted line HBD3_3),Relative change in MIC (MIC of the AMP-adpated line / MIC of the ancestral strain) ([1]; AMP-adapted line HBD3_6),Relative change in MIC (MIC of the AMP-adpated line / MIC of the ancestral strain) ([1]; AMP-adapted line HBD3_8),Relative change in MIC (MIC of the AMP-adpated line / MIC of the ancestral strain) ([1]; AMP-adapted line HBD3_10),Relative change in MIC (MIC of the AMP-adpated line / MIC of the ancestral strain) ([1]; AMP-adapted line LL37_1),Relative change in MIC (MIC of the AMP-adpated line / MIC of the ancestral strain) ([1]; AMP-adapted line LL37_3),Relative change in MIC (MIC of the AMP-adpated line / MIC of the ancestral strain) ([1]; AMP-adapted line LL37_6),Relative change in MIC (MIC of the AMP-adpated line / MIC of the ancestral strain) ([1]; AMP-adapted line LL37_7),Relative change in MIC (MIC of the AMP-adpated line / MIC of the ancestral strain) ([1]; AMP-adapted line LL37_10),Relative change in MIC (MIC of the AMP-adpated line / MIC of the ancestral strain) ([1]; AMP-adapted line PR39_1),Relative change in MIC (MIC of the AMP-adpated line / MIC of the ancestral strain) ([1]; AMP-adapted line PR39_2),Relative change in MIC (MIC of the AMP-adpated line / MIC of the ancestral strain) ([1]; AMP-adapted line PR39_5),Relative change in MIC (MIC of the AMP-adpated line / MIC of the ancestral strain) ([1]; AMP-adapted line PR39_7),Relative change in MIC (MIC of the AMP-adpated line / MIC of the ancestral strain) ([1]; AMP-adapted line PR39_10),Relative change in MIC (MIC of the AMP-adpated line / MIC of the ancestral strain) ([1]; AMP-adapted line PXB_2),other results
"TSSPPAAVVVRRRRRRRRRRRRRRRRRRR [PROA, Protamine, source herring, purchased from Sigma-Aldrich; cluster C3]",1.2,0.7622,0.7622,1.22,1.44,1.464,0.7639,1.22,1.584,0.7044,0.7622,0.48,1,0.48,2.99,1.2,1.2,1.73,1.44,1.7568,Relative change in MIC (MIC of the AMP-adpated line / MIC of the ancestral strain) ([1]; AMP-adapted line BAC5_3): 1.1; Relative change in MIC (MIC of the AMP-adpated line / MIC of the ancestral strain) ([1]; AMP-adapted line BAC5_5): 1.015; Relative change in MIC (MIC of the AMP-adpated line / MIC of the ancestral strain) ([1]; AMP-adapted line BAC5_7): 1.44; Relative change in MIC (MIC of the AMP-adpated line / MIC of the ancestral strain) ([1]; AMP-adapted line BAC5_10): 1.728; Relative change in MIC (MIC of the AMP-adpated line / MIC of the ancestral strain) ([1]; AMP-adapted line PEX_1): 1.2; Relative change in MIC (MIC of the AMP-adpated line / MIC of the ancestral strain) ([1]; AMP-adapted line PEX_4): 1.728; Relative change in MIC (MIC of the AMP-adpated line / MIC of the ancestral strain) ([1]; AMP-adapted line PEX_5): 0.915; Relative change in MIC (MIC of the AMP-adpated line / MIC of the ancestral strain) ([1]; AMP-adapted line PEX_6): 2.0736; Relative change in MIC (MIC of the AMP-adpated line / MIC of the ancestral strain) ([1]; AMP-adapted line PEX_7): 0.8472; Relative change in MIC (MIC of the AMP-adpated line / MIC of the ancestral strain) ([1]; AMP-adapted line PXB_5): 0.8333; Relative change in MIC (MIC of the AMP-adpated line / MIC of the ancestral strain) ([1]; AMP-adapted line PXB_6): 1; Relative change in MIC (MIC of the AMP-adpated line / MIC of the ancestral strain) ([1]; AMP-adapted line PXB_8): 1; Relative change in MIC (MIC of the AMP-adpated line / MIC of the ancestral strain) ([1]; AMP-adapted line PXB_10): 1.44
"RFRPPIRRPPIRPPFYPPFRPPIRPPIFPPIRPPFRPPLGPFP [BAC5, Bactenecin 5, antimicrobial peptide from bovine neutrophils; cluster C4]",1,0.915,0.915,1,0.915,1,0.9167,1,1,0.915,1,0.915,1,0.915,>4.30,2.0736,4.3,1.9,2.986,1.32,Relative change in MIC (MIC of the AMP-adpated line / MIC of the ancestral strain) ([1]; AMP-adapted line PEX_1): 1.1; Relative change in MIC (MIC of the AMP-adpated line / MIC of the ancestral strain) ([1]; AMP-adapted line PEX_4): 1.1; Relative change in MIC (MIC of the AMP-adpated line / MIC of the ancestral strain) ([1]; AMP-adapted line PEX_5): 1; Relative change in MIC (MIC of the AMP-adpated line / MIC of the ancestral strain) ([1]; AMP-adapted line PEX_6): 1.1; Relative change in MIC (MIC of the AMP-adpated line / MIC of the ancestral strain) ([1]; AMP-adapted line PEX_7): 1; Relative change in MIC (MIC of the AMP-adpated line / MIC of the ancestral strain) ([1]; AMP-adapted line PROA_2): 1.2; Relative change in MIC (MIC of the AMP-adpated line / MIC of the ancestral strain) ([1]; AMP-adapted line PROA_3): 1; Relative change in MIC (MIC of the AMP-adpated line / MIC of the ancestral strain) ([1]; AMP-adapted line PROA_7): 1.1; Relative change in MIC (MIC of the AMP-adpated line / MIC of the ancestral strain) ([1]; AMP-adapted line PROA_8): 1.1; Relative change in MIC (MIC of the AMP-adpated line / MIC of the ancestral strain) ([1]; AMP-adapted line PROA_9): 1.1; Relative change in MIC (MIC of the AMP-adpated line / MIC of the ancestral strain) ([1]; AMP-adapted line PXB_5): 1.1; Relative change in MIC (MIC of the AMP-adpated line / MIC of the ancestral strain) ([1]; AMP-adapted line PXB_6): 1; Relative change in MIC (MIC of the AMP-adpated line / MIC of the ancestral strain) ([1]; AMP-adapted line PXB_8): 1; Relative change in MIC (MIC of the AMP-adpated line / MIC of the ancestral strain) ([1]; AMP-adapted line PXB_10): 0.915
"RWCFRVCYRGICYRKCR [TPII, Tachyplesin II, antimicrobial peptide from Japanese horseshoe crab; disrupts cell membrane; cluster C1]",–,–,–,–,–,–,–,–,–,–,–,–,–,–,–,–,–,–,–,–,Emergence of resistant lines in laboratory evolution (E. coli): did not result in any significant resistant lines
"GIGKFLKKAKKFGKAFVKILKK [PEX, Pexiganan, synthetic Magainin derivative; disrupts cell membrane; cluster C2]",3.036,>3.6,1.964,2.986,2.488,3.648,2.089,3.578,2.72,1.584,1.32,1.22,2.986,2.093,1.464,1.1,1.1,1.1,1,1.32,Relative change in MIC (MIC of the AMP-adpated line / MIC of the ancestral strain) ([1]; AMP-adapted line BAC5_3): 1; Relative change in MIC (MIC of the AMP-adpated line / MIC of the ancestral strain) ([1]; AMP-adapted line BAC5_5): 1; Relative change in MIC (MIC of the AMP-adpated line / MIC of the ancestral strain) ([1]; AMP-adapted line BAC5_7): 1.1; Relative change in MIC (MIC of the AMP-adpated line / MIC of the ancestral strain) ([1]; AMP-adapted line BAC5_10): 1.1; Relative change in MIC (MIC of the AMP-adpated line / MIC of the ancestral strain) ([1]; AMP-adapted line PROA_2): 1.1; Relative change in MIC (MIC of the AMP-adpated line / MIC of the ancestral strain) ([1]; AMP-adapted line PROA_3): 1.1; Relative change in MIC (MIC of the AMP-adpated line / MIC of the ancestral strain) ([1]; AMP-adapted line PROA_7): 0.915; Relative change in MIC (MIC of the AMP-adpated line / MIC of the ancestral strain) ([1]; AMP-adapted line PROA_8): 1.2; Relative change in MIC (MIC of the AMP-adpated line / MIC of the ancestral strain) ([1]; AMP-adapted line PROA_9): 1; Relative change in MIC (MIC of the AMP-adpated line / MIC of the ancestral strain) ([1]; AMP-adapted line PXB_5): 1.844; Relative change in MIC (MIC of the AMP-adpated line / MIC of the ancestral strain) ([1]; AMP-adapted line PXB_6): 1.6368; Relative change in MIC (MIC of the AMP-adpated line / MIC of the ancestral strain) ([1]; AMP-adapted line PXB_8): 1.844; Relative change in MIC (MIC of the AMP-adpated line / MIC of the ancestral strain) ([1]; AMP-adapted line PXB_10): >3.6
"ILPWKWPWWPWRR [IND, Indolicidin, antimicrobial peptide from bovine neutrophils; cluster C3]",–,–,–,–,–,–,–,–,–,–,–,–,–,–,–,–,–,–,1.3,–,–
